{
  "source": "patent US7928121B2",
  "about": "“5-HT7 receptor antagonists” (Laboratorios Del Dr. Esteve, S.A., priority 2004, dated 2011)",
  "target": "T1, Cloned Human Serotonin Receptor, Subtype 7 (h5HT7) (Homo sapiens, UniProt P34969)",
  "T1 construct": "purchased PerkinElmer 6120512; host or cells: CHO cells (membranes coated on Basic FlashPlate SMP200)",
  "T1 sequence (P34969 whole entry)": "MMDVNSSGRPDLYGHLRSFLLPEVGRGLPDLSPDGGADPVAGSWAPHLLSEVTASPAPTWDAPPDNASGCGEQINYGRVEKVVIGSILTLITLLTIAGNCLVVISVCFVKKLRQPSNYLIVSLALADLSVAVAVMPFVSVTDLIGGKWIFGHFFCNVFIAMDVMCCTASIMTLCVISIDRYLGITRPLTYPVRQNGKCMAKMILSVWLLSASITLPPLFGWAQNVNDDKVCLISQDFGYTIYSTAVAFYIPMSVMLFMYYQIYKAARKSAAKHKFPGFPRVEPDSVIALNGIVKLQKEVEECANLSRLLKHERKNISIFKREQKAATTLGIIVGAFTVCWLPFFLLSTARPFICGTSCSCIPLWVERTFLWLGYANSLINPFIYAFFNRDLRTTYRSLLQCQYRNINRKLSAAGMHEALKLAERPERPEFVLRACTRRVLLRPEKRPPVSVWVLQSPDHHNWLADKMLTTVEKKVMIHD",
  "experiment": "Radioligand binding assay, cloned human serotonin receptor subtype 7 (h5HT7) expressed in CHO cells, [125I]LSD, Flashplate",
  "details": "radioligand [125I]LSD 0.82 nM, room temperature, 240 minutes, triplicate determinations, read-out: 5-HT7 IC-50",
  "experimental": "Biological Assays Radioligand Binding\nRadioligand binding assays were performed using the Cloned Human Serotonin Receptor, Subtype 7 (h5HT7), expressed in CHO cells, coated on Flashplate (Basic FlashPlate Cat.: SMP200) from PerkinElmer (Cat.: 6120512). The protocol assay was essentially the recommended protocol in the Technical Data Sheet by PerkinEmer Life and Analytical Sciences. The Mass membrane protein/well was typically 12 μg and the Receptor/well was about 9-10 fmoles. The Flashplate were let equilibrate at room temperature for one hour before the addition of the components of the assay mixture. The binding buffer was: 50 mM Tris-HCl, pH 7.4, containing 10 mM MgCl2, 0.5 mM EDTA and 0.5% BSA. The radioligand was [^125I]LSD at a final concentration of 0.82 nM. Nonspecific binding was determined with 50 μM of Clozapine. The assay volume was 25 μl. TopSeal-A were applied onto Flashplate microplates and they were incubated at room temperature for 240 minutes in darkness. The radioactivity were quantified by liquid scintillation spectrophotometry (Wallac 1450 Microbeta Trilux) with a count delay of 4 minutes prior to counting and a counting time of 30 seconds per well. Competition binding data were analyzed by using the LIGAND program (Munson and Rodbard, LIGAND: A versatile, computerized approach for characterization of ligand-binding systems. Anal. Biochem. 107: 220-239, 1980) and assays were performed in triplicate determinations for each point.",
  "note": "Where a name gives a salt, the structure may show the parent alone.",
  "data": [
    {"molecule": "O=S(=O)(c1cc(Cl)c(F)cc1F)N1CCC(CN2CCc3ccccc3C2)CC1", "note": "[Compound 1, 2-[1-(5-Chloro-2,4-difluoro-benzenesulfonyl)-piperidin-4-ylmethyl]-1,2,3,4-tetrahydroisoquinoline hydrochloride]", "values": [
      {"measurement": "IC50", "result": 70.2, "unit": "nM"}
    ]},
    {"molecule": "O=S(=O)(c1ccccc1Cl)N1CCC(CN2CCc3ccccc3C2)CC1", "note": "[Compound 2, 2-[1-(2-Chloro-benzenesulfonyl)-piperidin-4-ylmethyl]-1,2,3,4-tetrahydro-isoquinoline hydrochloride]", "values": [
      {"measurement": "IC50", "result": "28.4 ± 18.2", "unit": "nM"}
    ]},
    {"molecule": "O=S(=O)(c1cc(Cl)ccc1Cl)N1CCC(CN2CCc3ccccc3C2)CC1", "note": "[Compound 3, 2-[1-(2,5-Dichloro-benzenesulfonyl)-piperidin-4-ylmethyl]-1,2,3,4-tetrahydro-isoquinoline hydrochloride]", "values": [
      {"measurement": "IC50", "result": 76.4, "unit": "nM"}
    ]},
    {"molecule": "Cc1cccc(S(=O)(=O)N2CCC(CN3CCc4ccccc4C3)CC2)c1", "note": "[Compound 5, 2-[1-(Toluene-3-sulfonyl)-piperidin-4-ylmethyl]-1,2,3,4-tetrahydroisoquinoline hydrochloride]", "values": [
      {"measurement": "IC50", "result": 63, "unit": "nM"}
    ]},
    {"molecule": "O=S(=O)(c1cc(F)c(F)cc1Cl)N1CCC(CN2CCc3ccccc3C2)CC1", "note": "[Compound 6, 2-[1-(2-Chloro-4,5-difluoro-benzene-sulfonyl)-piperidin-4-ylmethyl]-1,2,3,4-tetrahydroisoquinoline hydrochloride]", "values": [
      {"measurement": "IC50", "result": "18.2 ± 3.7", "unit": "nM"}
    ]},
    {"molecule": "Cc1cc(S(=O)(=O)N2CCC(CN3CCc4ccccc4C3)CC2)c(C)cc1Cl", "note": "[Compound 16, 2-[1-(4-Chloro-2,5-dimethyl-benzenesulfonyl)-piperidin-4-ylmethyl]-1,2,3,4-tetrahydroisoquinoline hydrochloride]", "values": [
      {"measurement": "IC50", "result": "36.1 ± 16", "unit": "nM"}
    ]},
    {"molecule": "O=S(=O)(c1ccccc1Br)N1CCC(CN2CCc3ccccc3C2)CC1", "note": "[Compound 22, 2-[1-(2-Bromo-benzenesulfonyl)-piperidin-4-ylmethyl]-1,2,3,4-tetrahydro-isoquinoline hydrochloride]", "values": [
      {"measurement": "IC50", "result": "16.8 ± 8", "unit": "nM"}
    ]},
    {"molecule": "O=S(=O)(c1cccc2ccccc12)N1CCC(CN2CCc3ccccc3C2)CC1", "note": "[Compound 23, 2-[1-(Naphtalene-1-sulfonyl)-piperidin-4-ylmethyl]-1,2,3,4-tetrahydroisoquinoline hydrochloride]", "values": [
      {"measurement": "IC50", "result": 83.4, "unit": "nM"}
    ]},
    {"molecule": "COc1cc2c(cc1OC)CN(CC1CCN(S(=O)(=O)c3ccccc3Cl)CC1)CC2", "note": "[Compound 77, 2-[1-(2-Chlorobenzene-sulfonyl)-piperidin-4-ylmethyl]-6,7-dimethoxy-1,2,3,4-tetrahydroisoquinoline hydrochloride]", "values": [
      {"measurement": "IC50", "result": 41.8, "unit": "nM"}
    ]},
    {"molecule": "COc1cc2c(cc1OC)CN(CC1CCN(S(=O)(=O)c3cc(Cl)ccc3Cl)CC1)CC2", "note": "[Compound 85, 2-[1-(2,5-Dichloro-benzenesulfonyl)-piperidin-4-ylmethyl]-6,7-dimethoxy-1,2,3,4-tetrahydro-isoquinoline hydrochloride]", "values": [
      {"measurement": "IC50", "result": 60.7, "unit": "nM"}
    ]}
  ]
}
